These results are taken from patent US7671068B2, “N-(alkoxyalkyl) carbamoyl-substituted 6-phenyl-benzonaphthyridine derivatives and their use as PDE ¾ inhibitors” (NYCOMED GmbH, priority 2004, dated 2010).

For assay [1], the system named is PDE4 (cAMP-specific) in the cytosol of human polymorphonuclear leukocytes (PMNL). Put plainly: PDE4 inhibition, Method A (radioactive PDE assay after Thompson et al.). It counts as biochemical. Conditions: cAMP substrate, motapizone 1 μM. Here is the method: (§1) The PDE activity was determined according to Thompson et al. (Adv Cycl Nucl Res 10: 69-92, 1979) with some modifications (Bauer and Schwabe, Naunyn-Schmiedeberg's Arch Pharmacol 311: 193-198, 1980). The test samples contained 20 mM Tris (pH 7.4), 5 mM MgCl2, 0.5 μM CAMP or cGMP, [^3H]cAMP or [^3H]cGMP (about 30 000 cpm/sample), the PDE isoenzyme-specific additives described in greater detail below, the indicated concentrations of inhibitor and an aliquot of the enzyme solution in a total sample volume of 200 μl. Dilution series of the compounds according to the invention were prepared in DMSO and further diluted in the samples [1:100 (v/v)], to give the desired end concentration of the inhibitors at a DMSO concentration of 1% (v/v), which for its part has only a minute effect on PDE activity.
(§2) After preincubation at 37° C. for 5 minutes, the reaction was started by addition of the substrate (CAMP or cGMP). The samples were incubated at 37° C. for a further 15 min. The reaction was terminated by addition of 50 μl 0.2 N HCl. After cooling on ice for 10 minutes and addition of 25 μg 5′-nucleotidase (snake venom from Crotalus atrox), the mixture was again incubated at 37° C. for 10 min and the samples were then applied to QAE Sephadex A-25 columns (sample volume 1 ml). The columns were eluted with 2 ml of 30 mM ammonium formate (pH 6.0). The radioactivity of the eluate was measured and corrected by the corresponding blank values (measured in the presence of denatured protein); the blank values were less than 5% of the total radioactivity. In no case did the proportion of hydrolyzed nucleotide exceed 30% of the original substrate concentration.
PDE4 (cAMP-specific) was investigated in the cytosol of human polymorphonuclear leukocytes (PMNL) [isolated from leukocyte concentrates, see Schudt et al., Arch Pharmacol 1991: 344, 682-690] using cAMP as substrate. The PDE3 inhibitor motapizone (1 μM) was used to suppress the PDE3 activity emanating from contaminated platelets.
(§3) The IC50 values were determined from the concentration-inhibition curves by nonlinear regression.
(§4) The inhibitory values of the compounds 1-16 and 22-24 have been determined according to Method A. The inhibitory values of the compounds 17-21 have been determined according to Method B.

For assay [2], the target named is T1, PDE3 (cGMP-inhibited) in homogenates of human platelets (Homo sapiens, UniProt Q14432).
T1 construct: investigated in homogenates of human platelets; from tissue; host or cells: homogenates of human platelets
Put plainly: PDE3 inhibition, Method A (radioactive PDE assay after Thompson et al.). It counts as biochemical. As to conditions: read-out: PDE3 [−log IC50, mol/l] (converted). As for the experimental part: as §1, §2
PDE3 (cGMP-inhibited) was investigated in homogenates of human platelets (see Schudt et al., Biochem Pharmacol 1991: 42, 153-162) using CAMP or cGMP as substrate.
as §3, §4

T1 sequence (Q14432 whole entry): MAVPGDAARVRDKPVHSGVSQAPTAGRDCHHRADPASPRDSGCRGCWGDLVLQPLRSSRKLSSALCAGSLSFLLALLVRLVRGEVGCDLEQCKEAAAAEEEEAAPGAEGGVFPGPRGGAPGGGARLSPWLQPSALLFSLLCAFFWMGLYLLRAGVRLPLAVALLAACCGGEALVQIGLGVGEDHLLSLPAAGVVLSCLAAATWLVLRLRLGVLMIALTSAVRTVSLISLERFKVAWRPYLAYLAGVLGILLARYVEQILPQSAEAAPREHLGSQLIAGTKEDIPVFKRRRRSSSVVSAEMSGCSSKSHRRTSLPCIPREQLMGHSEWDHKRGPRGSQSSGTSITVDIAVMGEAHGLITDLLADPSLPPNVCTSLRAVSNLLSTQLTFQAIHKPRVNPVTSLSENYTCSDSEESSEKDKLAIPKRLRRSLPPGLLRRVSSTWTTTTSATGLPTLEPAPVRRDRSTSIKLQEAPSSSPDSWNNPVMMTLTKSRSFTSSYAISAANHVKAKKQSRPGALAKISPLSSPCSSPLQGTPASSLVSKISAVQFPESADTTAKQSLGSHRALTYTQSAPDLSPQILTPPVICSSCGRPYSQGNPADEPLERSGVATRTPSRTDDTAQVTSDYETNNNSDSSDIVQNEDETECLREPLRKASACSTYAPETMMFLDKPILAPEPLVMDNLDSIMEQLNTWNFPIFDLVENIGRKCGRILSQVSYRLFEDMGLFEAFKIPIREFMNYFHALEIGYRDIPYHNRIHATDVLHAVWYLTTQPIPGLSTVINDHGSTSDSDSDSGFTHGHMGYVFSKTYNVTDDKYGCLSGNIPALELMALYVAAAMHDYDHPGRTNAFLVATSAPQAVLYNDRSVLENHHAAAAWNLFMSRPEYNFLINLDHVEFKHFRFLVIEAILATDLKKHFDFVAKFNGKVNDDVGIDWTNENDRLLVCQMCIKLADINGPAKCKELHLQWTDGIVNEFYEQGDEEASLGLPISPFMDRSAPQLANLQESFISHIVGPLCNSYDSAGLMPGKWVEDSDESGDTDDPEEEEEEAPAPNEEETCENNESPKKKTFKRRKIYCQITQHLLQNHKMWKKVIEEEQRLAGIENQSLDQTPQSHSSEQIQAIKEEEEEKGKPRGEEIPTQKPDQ

Consider `CCOc1cc2c(cc1OC)C(c1ccc(C(=O)N(C(C)C)C(C)CCOCc3ccccc3)cc1)=N[C@@H]1CCN(C)C[C@H]21` (mixture of isomers) [Compound 10, N-(3-Benzyloxy-1-methyl-propyl)-4-((4aR,10bS)-9-ethoxy-8-methoxy-2-methyl-1,2,3,4,4a,10b-hexahydro-benzo[c][1,6]naphthyridin-6-yl)-N-isopropyl-benzamide], for which the “PDE4 [−log IC50, mol/l]” value in assay [1] is on record as 8.9 mol/l. For the same compound, the IC50 in assay [2] is 100 nM.

`CCOc1cc2c(cc1OC)C(c1ccc(C(=O)NC(CC)COC)cc1)=N[C@@H]1CCN(C)C[C@H]21.Cl` (mixture of isomers) [Compound 3, 4-((4aR,10bS)-9-Ethoxy-8-methoxy-2-methyl-1,2,3,4,4a,10b-hexahydro-benzo [c][1,6]naphthyridin-6-yl)-N-(1(rac)-methoxymethyl-propyl)-benzamide; hydrochloride]: the “PDE4 [−log IC50, mol/l]” value in assay [1] is listed as 9.0 mol/l. The IC50 in assay [2] was 1000 nM.

With `CCOc1cc2c(cc1OC)C(c1ccc(C(=O)NCCCOC(C)C)cc1)=N[C@@H]1CCN(C)C[C@H]21.Cl` [Compound 1, 4-(4aR,10bS)-9-Ethoxy-8-methoxy-2-methyl-1,2,3,4,4a,10b-hexahydro-benzo [c][1,6]naphthyridin-6-yl)-N-(3-isopropoxy-propyl)-benzamide; hydrochloride], the IC50 in assay [2] was 631 nM.

For `CCOc1cc2c(cc1OC)C(c1ccc(C(=O)NCCCOC(C)C)cc1)=N[C@@H]1CCN(C)C[C@H]21.Cl` [Compound 1], the “PDE4 [−log IC50, mol/l]” value in assay [1] is given as 8.9 mol/l.

With `CCOc1cc2c(cc1OC)C(c1ccc(C(=O)N[C@@H](C)COC)cc1)=N[C@@H]1CCN(C)C[C@H]21.Cl` [Compound 2, 4-((4aR,10bS)-9-Ethoxy-8-methoxy-2-methyl-1,2,3,4,4a,10b-hexahydro-benzo [c][1,6]naphthyridin-6-yl)-N-((S)-2-methoxy-1-methyl-ethyl)-benzamide; hydrochloride], the “PDE4 [−log IC50, mol/l]” value in assay [1] was 8.5 mol/l. Further, in assay [2], the IC50 is 1580 nM.

On to `CCOCCCNC(=O)c1ccc(C2=N[C@@H]3CCN(C)C[C@@H]3c3cc(OCC)c(OC)cc32)cc1.Cl` [Compound 4, 4-((4aR,10bS)-9-Ethoxy-8-methoxy-2-methyl-1,2,3,4,4a,10b-hexahydro-benzo [c][1,6]naphthyridin-6-yl)-N-(3-ethoxy-propyl)-benzamide; hydrochloride], for which the “PDE4 [−log IC50, mol/l]” value in assay [1] was found to be 8.4 mol/l. In addition, in assay [2], the IC50 was 794 nM.

Turning to `CCOc1cc2c(cc1OC)C(c1ccc(C(=O)N(CC)CCOC)cc1)=N[C@@H]1CCN(C)C[C@H]21.Cl` [Compound 5, 4-((4aR,10bS)-9-Ethoxy-8-methoxy-2-methyl-1,2,3,4,4a,10b-hexahydro-benzo [c][1,6]naphthyridin-6-yl)-N-ethyl-N-(2-methoxy-ethyl)-benzamide; hydrochloride], the “PDE4 [−log IC50, mol/l]” value in assay [1] worked out at 8.9 mol/l. The IC50 in assay [2] is 200 nM.

For the compound `CCCN(CCOC)C(=O)c1ccc(C2=N[C@@H]3CCN(C)C[C@@H]3c3cc(OCC)c(OC)cc32)cc1.Cl` [Compound 6, 4-((4aR,10bS)-9-Ethoxy-8-methoxy-2-methyl-1,2,3,4,4a,10b-hexahydro-benzo [c][1,6]naphtpyridin-6-yl)-N-(2-methoxy-ethyl)-N-propyl-benzamide; hydrochloride], the “PDE4 [−log IC50, mol/l]” value in assay [1] was determined as 9.2 mol/l. Moreover, the IC50 in assay [2] is 126 nM.

Consider `CCOc1cc2c(cc1OC)C(c1ccc(C(=O)N(CCOC)C(C)C)cc1)=N[C@@H]1CCN(C)C[C@H]21.Cl` [Compound 7, 4-((4aR,10bS)-9-Ethoxy-8-methoxy-2-methyl-1,2,3,4,4a,10b-hexahydro-benzo [c][1,6]naphthyridin-6-yl)-N-isopropyl-N-(2-methoxy-ethyl)-benzamide; hydrochloride], for which, in assay [1], the “PDE4 [−log IC50, mol/l]” value is on record as 8.8 mol/l. In addition, the IC50 in assay [2] was 79.4 nM.

For `CCOc1cc2c(cc1OC)C(c1ccc(C(=O)N(C(C)C)[C@H](C)COCc3ccccc3)cc1)=N[C@@H]1CCN(C)C[C@H]21` [Compound 8, N—((R)-2-Benzyloxy-1-methyl-ethyl)-4-((4aR,10bS)-9-ethoxy-8-methoxy-2-methyl-1,2,3,4,4a,10b-hexahydro-benzo[c][1,6]naphthyridin-6-yl)-N-isopropyl-benzamide], the “PDE4 [−log IC50, mol/l]” value in assay [1] turned out to be 9.8 mol/l. In addition, the IC50 in assay [2] was 31.6 nM.

With `CCOc1cc2c(cc1OC)C(c1ccc(C(=O)N(C(C)C)[C@@H](C)COCc3ccccc3)cc1)=N[C@@H]1CCN(C)C[C@H]21` [Compound 9, N—((S)-2-Benzyloxy-1-methylethyl)-4-((4aR,10bS)-9-ethoxy-8-methoxy-2-methyl-1,2,3,4,4a,10b-hexahydro-benzo[c][1,6]naphthyridin-6-yl)-N-isopropyl-benzamide], the “PDE4 [−log IC50, mol/l]” value in assay [1] is given as 9.8 mol/l. In assay [2], the IC50 was 15.8 nM.

Consider `CCOc1cc2c(cc1OC)C(c1ccc(C(=O)N(C(C)C)[C@@H](C)COC)cc1)=N[C@@H]1CCN(C)C[C@H]21.Cl` [Compound 11, 4-((4aR,10bS)-9-Ethoxy-8-methoxy-2-methyl-1,2,3,4,4a,10b-hexahydro-benzo [c][1,6]naphthyridin-6-yl)-N-isopropyl-N-((S)-2-methoxy-1-methyl-ethyl)-benzamide; hydrochloride], for which the “PDE4 [−log IC50, mol/l]” value in assay [1] was determined as 9.0 mol/l. In assay [2], the IC50 was 79.4 nM.

Regarding `CCOc1cc2c(cc1OC)C(c1ccc(C(=O)N(CCOC)C3CCCCC3)cc1)=N[C@@H]1CCN(C)C[C@H]21.Cl` [Compound 12, N-Cyclohexyl-4-((4aR,10bS)-9-ethoxy-8-methoxy-2-methyl-1,2,3,4,4a,10b-hexahydro-benzo [c][1,6]naphthyridin-6-yl)-N-(2-methoxy-ethyl)-benzamide; hydrochloride], the “PDE4 [−log IC50, mol/l]” value in assay [1] turned out to be 9.4 mol/l. In assay [2], the IC50 is 158 nM.

With `CCOc1cc2c(cc1OC)C(c1ccc(C(=O)N(CCCOC)C3CCCCC3)cc1)=N[C@@H]1CCN(C)C[C@H]21.Cl` [Compound 13, N-Cyclohexyl-4-((4aR,10bS)-9-ethoxy-8-methoxy-2-methyl-1,2,3,4,4a,10b-hexahydro-benzo [c][1,6]naphthyridin-6-yl)-N-(3-methoxy-propyl)-benzamide; hydrochloride], in assay [1], the “PDE4 [−log IC50, mol/l]” value was found to be 9.9 mol/l. Moreover, the IC50 in assay [2] was 200 nM.

For the compound `CCOc1cc2c(cc1OC)C(c1ccc(C(=O)NCCOC)cc1)=N[C@@H]1CCN(C)C[C@H]21.Cl` [Compound 14, 4-((4aR,10bS)-9-Ethoxy-8-methoxy-2-methyl-1,2,3,4,4a,10b-hexahydro-benzo [c][1,6]naphthyridin-6-yl)-N-(2-methoxy-ethyl)-benzamide; hydrochloride], the “PDE4 [−log IC50, mol/l]” value in assay [1] came to 7.8 mol/l. Besides, in assay [2], the IC50 was 1000 nM.

For the compound `CCOc1cc2c(cc1OC)C(c1ccc(C(=O)N(C)CCOC)cc1)=N[C@@H]1CCN(C)C[C@H]21.Cl` [Compound 15, 4-((4aR,10bS)-9-Ethoxy-8-methoxy-2-methyl-1,2,3,4,4a,10b-hexahydro-benzo [c][1,6]naphthyridin-6-yl)-N-(2-methoxy-ethyl)-N-methyl-benzamide; hydrochloride], in assay [1], the “PDE4 [−log IC50, mol/l]” value is recorded as 8.0 mol/l. Further, in assay [2], the IC50 was 251 nM.
